“And” between values parts separate entries of the source, which are not always exact repeats. Identical values can stand only once.
Tests used:
[1] = test system: target mRNA; test: Cleavage of target mRNA in the presence of RNAseH (Example 40); type: biochemical; settings: for % of target mRNA cleavage: 30 minutes, estimated by visual inspection of the gel; for specificity of target mRNA cleavage: denaturing gel
Protocol: A target mRNA having complementarity to these oligomers at the initiation codon region was prepared by standard cloning techniques with transcription using a T7 polymerase cell-free assay (Promega MEGAscript kit for uncapped RNA), according to the manufacturer's protocol. The resulting mRNA transcript is approximately 340 nt in length.
The ability to cleave this target mRNA, in the presence of RNAseH and either of oligomers 2567-1 {[MP]-[DE]-[MP]} and 3169-1 {[MP(Rp)/DE]-[DE]-[MP(Rp)/DE]} was determined as follows.
Cell-free transcribed mRNA (100 nM) was incubated at 37° C., in a cell-free translation buffer (containing 3.5 mM MgCl2, 25 mM KCl, 70 mM NaCl and 20 mM potassium acetate), in the presence of 0.04 units/μl of RNAseH (Promega) and either of oligomers 2567-1 or 3169-1 at 0, 0.01, 0.1, 1, or 10 μM. After 30 minutes, the RNA was extracted, denatured and run in a denaturing gel. After the run, the RNA was stained with ethidium bromide and its integrity was determined by visual observation of the RNA bands present in the gel.

[2] = test system: S1-endonuclease; test: Stability to nuclease digestion by S1-endonuclease (Example 37); type: in vitro ADME; settings: S1-endonuclease 0.5 units/mL, pH 5.0, 37° C.; 50% full length oligomer digested
Protocol: The following oligomers were tested for nuclease stability in the presence of S1-endonuclease.
S1-endonuclease was purchased from Promega Corp. (Catalog #E576B, Madison, Wis.). Aliquots of each chimeric oligomer (0.05-0.075 OD260 units) were individually added to polypropylene microcentrifuge tubes containing S1-endonuclease (0.5 units/mL) in 30 mM sodium acetate (pH 5.0), 50 mM NaCl, 1.0 mM zinc acetate and 5% glycerol; total reaction volume=10 μL. These tubes were incubated at 37° C. for specified time periods, quickly frozen in dry ice and then stored in a freezer at -20° C. […] Column=Vydac Protein C4 (catalog #214TP54, 4.9 mm i.d.×250 mm long). Buffer A=50 mM triethylammonium acetate (pH 7)/1% acetonitrile; Buffer B=50 mM triethylammonium acetate (pH 7)/50% acetonitrile. […] The samples were diluted with water (50 μL) and injected onto the column using a 100 μL sample loop. Peaks corresponding to full length oligomer and its degradation products were detected by monitoring at 260 nm. The amount of degradation occurring in each reaction was determined by measuring the reduction in peak area for the full-length oligomer (identified by comparison to an external control and/or by coinjecting undigested oligomer as an internal control). The data is shown in tabular format below, and in graphic format in FIG. 1.

[3] = Stability to nuclease digestion in 10% fetal calf serum (Example 38); type: in vitro ADME; settings: pH 8.0, 37° C., 50% full length oligomer digested, first three time points
Protocol: Multiple samples of each chimeric oligomer were prepared in 1.5 mL polypropylene microcentrifuge tubes on ice. Each sample contained oligomer (0.1 OD260 unit), 10% fetal calf serum (FCS, Gemini Bioproducts, Calabasas, Calif.), 20 mM HEPES (pH 8.0), 0.2% paramethylsulfonyl fluoride (PMSF), 175 mM KCl, 0.1 mM dithiothreitol, 0.1 mM EDTA, 2 mM MgCl2 and 4% glycerol--total volume=100 μL. The samples were incubated at 37° C. for specified time periods and then diluted with 0.4% NP-40/acetonitrile (35 μL), quickly frozen on dry ice and stored at -20° C. Samples were then individually thawed, diluted with water (635 μL) and analyzed immediately by reversed-phase HPLC according to the method given in the preceding example (except that a 2 mL sample loop was used to load the samples onto the column). Results are shown in tabular format below, and in graphical format in FIG. 2.

[4] = test system: control CAT mRNA; test: Cell-free translation of control CAT mRNA in rabbit reticulocyte lysates (Example 39); type: biochemical; settings: 0.2 or 1 μM
Protocol: (§1) A target mRNA having complementarity to these oligomers at the initiation codon region was prepared by standard cloning techniques with […] catalyzed by T7 polymerase (Promega MEGAscript kit for uncapped RNA), according to the manufacturer's protocol. Control CAT mRNA was obtained from GIBCO as a control for specificity.
Target mRNA and control CAT mRNA were translated in a cell-free translation assay in rabbit reticulocyte lysates (Promega), in the presence of ^35 [S]-Cys (NEN/DuPont) following the manufacturer's directions. Oligos 2567-1 and 3169-1 were added to individual translation reactions at […], final concentrations. RNAse-H (Promega Corp.) was added to all the translation reactions at 0.04 units/ul. Each condition was run in triplicate. […] At the end of the translation reactions, proteins were denatured with Laemmli Sample Buffer (Novex) and the amounts of target proteins synthesized in each case were evaluated after immunoprecipitation with an hyperimmune antibody serum followed by gel fractionation of the protein products (10-20% gradient SDS-PAGE gels, Novex) and phosphoimage analysis. The amount of control CAT protein synthesized in each case was evaluated after gel fractionation of one aliquot of the denatured translation reaction (10-20% gradient SDS-PAGE gels, Novex) and phosphoimage analysis.

[5] = test system: complementary synthetic RNA target; test: Binding affinities of chimeric backbone oligomers to RNA (Example 35); set-up: KA (37° C.): unit not given here; settings: for Tm: 1:1 molar ratio, 2.4 micromolar total strand, pH 7.2, 100 mM NaCl; for KA (37° C.): two-state model fit
Protocol: The following oligonucleotides were tested for their ability to hybridize to a complementary synthetic RNA target.
The bases shown in parentheses contain the backbone modification indicated in the middle set of brackets for each description, and likewise the terminal portions of the oligomers contain linkage structures as shown in the terminal sets of brackets. The PS/DE notation indicates an alternating array of bases beginning with a phosphorothioate linkage. For example, if there are five bases in a sequence denoted as PS/DE, they include three phosphorothioate (PS) bonds and two phosphodiester (DE) bonds.
Each oligomer was mixed with its complementary synthetic RNA target in a 1:1 molar ratio in a buffer system consisting of 20 mM sodium phosphate buffer (pH 7.2), 100 mM NaCl, 0.03% potassium sarkosylate and 0.1 mM EDTA; total strand concentration=2.4 micromolar. The resulting solutions were heated to 70° C. and slowly cooled to 4° C. over a time period of approximately 4-6 hours. […] The binding constants at 37° C.

[6] = test system: target mRNA; test: Cell-free translation of target mRNA in rabbit reticulocyte lysates (Example 39); type: biochemical
Protocol: as §1
Target mRNA and control CAT mRNA were translated in a cell-free translation assay in rabbit reticulocyte lysates (Promega), in the presence of ^35 [S]-Cys (NEN/DuPont) following the manufacturer's directions. Oligos 2567-1 and 3169-1 were added to individual translation reactions at […], final concentrations. RNAse-H (Promega Corp.) was added to all the translation reactions at 0.04 units/ul. Each condition was run in triplicate. Translation reactions were incubated at 37° C. for 1 hour. At the end of the translation reactions, proteins were denatured with Laemmli Sample Buffer (Novex) and the amounts of target proteins synthesized in each case were evaluated after immunoprecipitation with an hyperimmune antibody serum followed by gel fractionation of the protein products (10-20% gradient SDS-PAGE gels, Novex) and phosphoimage analysis. The amount of control CAT protein synthesized in each case was evaluated after gel fractionation of one aliquot of the denatured translation reaction (10-20% gradient SDS-PAGE gels, Novex) and phosphoimage analysis.

[7] = test system: endogenous eukaryotic RNaseH derived from HeLa cell nuclear extracts; type: biochemical; settings: 10 μM oligomer, 1 μM RNA target
[8] = test system: pG1036 (wild-type CAT); test: Inhibition of CAT expression, non-splicing control pG1036 (wild-type CAT), in COS-7 cells; type: cell-based, African Green Monkey; settings: 1.0 μM oligomer; ± std error; normalized to protein and luciferase
Protocol: (§2) COS-7 cells were transiently transfected with plasmids encoding either a target reporter gene or a control non-target reporter gene. These cells were then treated with various chimeric antisense or control oligomers and then assayed for the expression of the reporter genes.
pG1036: Wild-type CAT, inserted into a pRc/CMV vector
COS 7 cells were plated at 1.5×10^5 cells/well in a 12 well plate format on the day before transfections began. All cultures were maintained at 37° C. On the next day, the transfection mixes were prepared. […] These quantities gave a 6.9 or 4.5 or 2.0 to 1 cationic lipid to oligomer plus DNA ratio, respectively, in one milliliter total. pGL2 and pSVβ served as transfection and oligomer specificity controls. […]
(§3) The cell lysates were then assayed for CAT, and luciferase or […] activity, and the total protein concentration was determined as described below. […]
(§4) […] of reaction mixture was then added to each tube, which was then incubated for, typically, approximately 1 hour in a 37° C. oven. […] The sample was then counted in a Packard scintillation counter.
(§5) This assay was performed generally as follows according to standard procedures. 20 μof lysate was combined with 100 μl of luciferase assay reagent (Promega) and counted in a scintillation counter (Packard) within 20 seconds (as recommended by Promega). […]

[9] = test system: pG1035 (SplicerCAT); test: Inhibition of CAT expression, splicing target pG1035 (SplicerCAT), in COS-7 cells; type: cell-based, African Green Monkey; settings: 1.0 μM oligomer; ± std error; normalized to protein and luciferase; chimeric oligomers also normalized to pG1036
Protocol: as §2
pG1035: Splicer CAT, inserted into a pRc/CMV vector
COS 7 cells were plated at 1.5×10^5 cells/well in a 12 well plate format on the day before transfections began. All cultures were maintained at 37° C. On the next day, the transfection mixes were prepared. For each well of a 12 well plate, 1.0 μM oligomer was combined with 1 μg pGL2 or pSVβ+1 μg of the target CAT plasmid in 0.5 ml of Optimem (Gibco/BRL) and 18.75 μg Transfectam (for chimeric oligomers, Promega) or Lipofectamine (for all PS oligomers, Promega) also in 0.5 ml of Optimem. These quantities gave a 6.9 or 4.5 or 2.0 to 1 cationic lipid to oligomer plus DNA ratio, respectively, in one milliliter total. pGL2 and pSVβ served as transfection and oligomer specificity controls. […]
as §3, §4, §5
Six μl of lysate per well was added, followed by 300 μl Coomassie Protein Assay Reagent (Pierce) per well. The individual sample plates were then read at A570 on a microplate reader (Molecular Devices). […]
Oligomers were transfected into COS-7 cells and lysates were made and assayed as described previously. […] N.D.=not determined. […]

## 2567-1: 5'-GTCTTCCA(TGCAT)GTTGTCC-3' [MP][DE][MP] [Oligomer 2567-1]
[1]; 0.01 μM
  % of target mRNA cleavage: 2%
[1]; 0.1 μM
  % of target mRNA cleavage: 15%
[1]; 1 μM
  % of target mRNA cleavage: ~ 50% and 50%
[1]; 10 μM
  % of target mRNA cleavage: 80%
[1]
  specificity of target mRNA cleavage: good specificity, cleaving the target mRNA in one position
[2]
  Half-Life for Degradation: 1.7 h
[3]
  Half-Life for Degradation: 5.8 h
[4]
  inhibition of control CAT mRNA translation: little inhibition
[5]
  Tm: 45.6 °C
  KA (37° C.): 2.9 × 10^7
[6]; 0.2 μM
  inhibition of target mRNA translation: approximately 0%
[6]; 1 μM
  inhibition of target mRNA translation: approximately 50%

## 3169-1: 5'-GTCTTCCA(TGCAT)GTTGTCC-3' [MP(Rp)/DE][DE][MP(Rp)/DE] [Oligomer 3169-1]
[1]; 0.01 μM
  % of target mRNA cleavage: 5%
[1]; 0.1 μM
  % of target mRNA cleavage: 40%
[1]; 1 μM
  % of target mRNA cleavage: ~ 98% and 98%
[1]; 10 μM
  % of target mRNA cleavage: 100%
[1]
  specificity of target mRNA cleavage: good specificity, cleaving the target mRNA in one position
[2]
  Half-Life for Degradation: 0.9 h
[7]
  RNaseH Cleavage after 2 Hrs. at 37° C.: 52.0%
[3]
  Half-Life for Degradation: 3.4 h
[4]
  inhibition of control CAT mRNA translation: little inhibition
[5]
  Tm: 62.6 °C
  KA (37° C.): 6.0 × 10^14
[6]; 0.2 μM
  inhibition of target mRNA translation: approximately 50%
[6]; 1 μM
  inhibition of target mRNA translation: ~90%

## XV-5: 24mer, all phosphorothioate: 5' cac tca cct tta ggg aaa tag gcc 3' (CACTCACCTTTAGGGAAATAGGCC; all phosphorothioate, sugars by position and methylation of C not given here)
[8]
  percent inhibition of CAT expression, pG1036 = non-splicing: 35 ± 1%
[9]
  percent inhibition of CAT expression, pG1035 = splicing: 32 ± 1%

## XV-6: 24mer, all phosphorothioate: 5' cac tca atc aat gac tag tct gca 3' (CACTCAATCAATGACTAGTCTGCA; all phosphorothioate, sugars by position and methylation of C not given here)
[8]
  percent inhibition of CAT expression, pG1036 = non-splicing: 30 ± 4%
[9]
  percent inhibition of CAT expression, pG1035 = splicing: 23 ± 15%
